Reference: ChEMBL document CHEMBL1158642, “Syntheses and biological evaluation of ring-C modified colchicine analogs” (Bioorg Med Chem Lett, 2010)
The source made the active and inactive calls. No cut-off for these calls is given here.

Tests used:
[1] = Inhibition of microtubule polymerization at 10 uM after 10 mins
MCF7 = assay: Cytotoxicity against human MCF7 cells after 72 hrs by crystal violet staining; assay type: functional, cell-based; conditions: MCF7, 72 h
PC-3 = assay: Cytotoxicity against human PC3 cells after 72 hrs by crystal violet staining; assay type: functional, cell-based; conditions: PC-3, 72 h

| Structure (SMILES) | Activity [1] | IC50 (MCF7) | IC50 (PC-3) |
| --- | --- | --- | --- |
| COC1=C[C@H]2C3=C([C@@H](ON2c2cc(C)on2)C1=O)[C@@H](NC(C)=O)CCc1cc(OC)c(OC)c(OC)c13 | Active | 190 nM | 250 nM |
| COC1=C[C@H]2C3=C([C@@H](ON2c2cccc(C)n2)C1=O)[C@@H](NC(C)=O)CCc1cc(OC)c(OC)c(OC)c13 | Active | 20 nM | 25 nM |
| COC1=C[C@@H]2ON(c3cnoc3C)[C@@H](C1=O)C1=C2c2c(cc(OC)c(OC)c2OC)CC[C@@H]1NC(C)=O | inactive | 250 nM | 245 nM |
| COc1cc2c(c(OC)c1OC)-c1ccc(OC)c(=O)cc1[C@@H](NC(C)=O)CC2 [COLCHICINE] | Active | – | 20 nM |
| COC1=C[C@H]2C3=C([C@@H](ON2c2cc(C)ccn2)C1=O)[C@@H](NC(C)=O)CCc1cc(OC)c(OC)c(OC)c13 | – | 10 nM | 14 nM |
| CCc1cccc(N2O[C@H]3C(=O)C(OC)=C[C@H]2C2=C3[C@@H](NC(C)=O)CCc3cc(OC)c(OC)c(OC)c32)n1 | – | 22 nM | 23 nM |
| COC1=C[C@H]2C3=C([C@@H](ON2c2ccccn2)C1=O)[C@@H](NC(C)=O)CCc1cc(OC)c(OC)c(OC)c13 | Active | 17 nM | 28 nM |
